Earlier results as cited in US20070185065A1, “Combination therapy for coronary artery disease” (priority 2006, published 2007).
Read-outs that look alike come from different tables or passages of the source.

Key:
[1] = test system: patients with atherosclerosis not limited to MI; details: compared to aspirin, three year period
[2] = test system: patients with known CHD and an HDL-C concentration below 45 mg/dL already receiving a statin
[3] = test system: proinflammatory cytokines and C-reactive protein (CRP); details: six weeks of therapy
[4] = test system: asymptomatic patients with an LVEF 40 percent after MI; details: mean follow-up of 42 months
[5] = test system: patients with systolic left ventricular dysfunction (SLVD) post-MI
[6] = test system: patients with chronic stable angina; details: six weeks therapy, metoprolol 200 mg daily
[7] = test system: patients with clinical evidence of HF post-MI
[8] = test system: patients who have had an acute MI; details: 160 mg twice daily

For COC(=O)[C@H](c1ccccc1Cl)N1CCc2sccc2C1 [Clopidogrel, clopidogrel], the “fatal or nonfatal MI” value [1] is listed as “significant reduction”.
For O=C(O)c1cccnc1 [ER niacin, niacin], the “mean increase in HDL-C” value ([2]; 1000 mg daily, on top of a statin) is listed as 21%, the HDL-C on treatment ([2]; 1000 mg daily, 1.0 mmol/L at baseline) is listed as 1.22 mmol/L and the HDL-C on treatment ([2]; 1000 mg daily, 39 mg/dL at baseline) is listed as 47 mg/dL. The “cardiovascular events, percent of patients” value ([2]; 9.6 percent with placebo, p=0.20) was 3.8% and the “increase in mean carotid intima-media thickness (CIMT)” value ([2]; after one year of therapy, ultrasound, p=0.23, placebo 0.044 mm) was 0.014 mm.
In the case of CC(=O)Oc1ccccc1C(=O)O [aspirin], the “markers of inflammation (proinflammatory cytokines and CRP)” value [3] is listed as “significantly reduced”.
For C[C@H](CS)C(=O)N1CCC[C@H]1C(=O)O [captopril], the “reduction in hospitalization for HF” value [4] is given as 22%, the “reduction in the incidence of recurrent MI” value [4] is given as 25% and the “reduction in the incidence of severe HF” value [4] is given as 37%. The decrease in mortality ([4]; versus placebo, 95% CI 3 to 32 percent) was 19% and the mortality ([4]; 25 percent for placebo) was 20%.
In the case of COC(=O)[C@@H]1CC2=CC(=O)CC[C@]2(C)[C@@]23O[C@@H]2C[C@@]2(C)[C@@H](CC[C@@]24CCC(=O)O4)[C@H]13 [eplerenone], the “reduction in combined primary endpoint of CV mortality and CV hospitalization” value ([5]; added to standard therapy) is listed as 13%, the “reduction in CV mortality” value ([5]; added to standard therapy, P=0.005) is listed as 17% and the “reduction in all-cause mortality” value ([5]; added to standard therapy, P=0.008) is listed as 15%. For the same molecule, the “further reduction in mortality” value ([5]; subgroup already receiving ACE inhibitors and beta-blockers) was 27%.
In the case of COCCc1ccc(OCC(O)CNC(C)C)cc1 (centres unmarked) [metoprolol], the “increase in mean exercise time to 1-mm ST segment depression” value ([6]; long-acting preparations, nifedipine 20 mg BID) is listed as 70 s and the frequency of angina [6] is listed as “reduced the frequency of angina”.
For CCOC(=O)[C@H](CCc1ccccc1)N[C@@H](C)C(=O)N1[C@H](C(=O)O)C[C@@H]2CCC[C@@H]21 [ramipril], the mortality ([7]; 603 United Kingdom patients followed for a mean of 59 months, 39 percent placebo) is given as 28%, the “reduction in sudden death” value ([7]; average of 15 months follow-up) is given as 30% and the “reduction in the incidence of severe, resistant HF” value ([7]; average of 15 months follow-up) is given as 23%. The decrease in mortality ([7]; average of 15 months follow-up, versus placebo, 95% CI 11 to 40 percent) was 27%, the “incidence of severe, resistant HF” value ([7]; average of 15 months follow-up, 18 percent for placebo) was 14% and the mortality ([7]; average of 15 months follow-up, 23 percent with placebo) was 17%. The “relative risk reduction (mortality)” value ([7]; mean of 59 months, 95% CI 15 to 52 percent) was 36%.
In the case of CCCCC(=O)N(Cc1ccc(-c2ccccc2-c2nnn[nH]2)cc1)[C@H](C(=O)O)C(C)C [valsartan], the “reduction in mortality after an MI compared to an ACE inhibitor” value [8] is given as “as effective as an ACE inhibitor”.
